According to article PMC12698583, “Efficacy of sulfonamides targeting malic enzyme in an animal model of Chagas disease” (Frontiers in Pharmacology, 2025):

Legend:
[1] = test system: T. cruzi Dm28c strain intracellular form infecting H9c2 rat cardiomyoblasts; experiment: T. cruzi intracellular image-based assay; assay type: cell-based, Trypanosoma cruzi; conditions: for EC50: host cells infected by T. cruzi amastigotes, 72 h treatment
Protocol: Tested compounds were dissolved and serially diluted in dimethylsulfoxide (DMSO) using a half-log dilution across six concentrations. Intermediate plates were prepared by diluting compounds 1:25 in DMEM (Dulbecco’s Modified Eagle Medium) with 10% FBS (Fetal Bovine Serum). The assay was based on [Fredo Naciuk et al. (2020)], with minor modifications. Briefly, T. cruzi trypomastigotes (from LLC-MK2 cultures, 6 days post-infection) were used to infect H9c2 rat cardiomyoblasts overnight (16–18 h) at MOI 1. After washing with PBS, cells were trypsinized and resuspended in DMEM at 2.3 × 10^4 cells/mL. Then, 65 μL per well was plated in 384-well plates and incubated for 24 h (37 °C, 5% CO2, >95% humidity). Subsequently, 7.5 μL of compound solution was added (final [DMSO] 0.4%). After 72 h of treatment, cells were fixed with 4% PFA and stained with Hoechst 33342 (4 μg/mL). Six images per well were acquired using the Operetta system (PerkinElmer) and analyzed with Columbus software to quantify infected cells (≥3 cytoplasmic parasite spots).

[2] = Tolerability study, Hippocratic screening; assay type: in vivo, mice; set-up: Hypnosis / Sedation / Urination / Tachypnea / Muscle tone / Convulsions / Salivation / Tremors / Vocalization / Limb abduction / Ataxia: scale not given here; conditions: 150 mg/kg PO
Protocol: A tolerability study of drug candidates was conducted using the Hippocratic screening protocol, focusing on the assessment of effects on the central nervous system (CNS) and autonomic nervous system (ANS). Each group containing 3 animals received a 150 mg/kg dose of the compounds via oral (PO) administration (gavage). During the experiment, various behavioral and physiological parameters were monitored at regular intervals, ranging from 0 to 24 hours after administration of the substance.

COc1ccc(NS(=O)(=O)c2cccc(NC(=O)c3cnccn3)c2)cc1 [AC-R008, N-(3-(N-(4-methoxyphenyl)sulfamoyl)phenyl)pyrazine-2-carboxamide]
SI ([1]; Selectivity index): 108 | EC50 ([1]; Trypanosoma cruzi, H9c2, 72 h): 920 nM | EC50 [1]: < 1000 nM | Ataxia ([2]; 0-15 min): 0A | Convulsions ([2]; 0-15 min): 0A | Hypnosis ([2]; 0-15 min): 0A | Limb abduction ([2]; 0-15 min): 0A | Muscle tone ([2]; 0-15 min): 0A | Pedaling ([2]; 0-15 min): 0A | Piloerection ([2]; 0-15 min): 0A | Ptosis ([2]; 0-15 min): 0A | Salivation ([2]; 0-15 min): 0A | Sedation ([2]; 0-15 min): 0A | Tachypnea ([2]; 0-15 min): 0A | Tremors ([2]; 0-15 min): 0A | Urination ([2]; 0-15 min): 0A | Vocalization ([2]; 0-15 min): 0A | Ataxia ([2]; 15 min): 0A | Convulsions ([2]; 15 min): 0A | Hypnosis ([2]; 15 min): 0A | Limb abduction ([2]; 15 min): 0A | Muscle tone ([2]; 15 min): 0A | Pedaling ([2]; 15 min): 0A | Piloerection ([2]; 15 min): 0A | Ptosis ([2]; 15 min): 0A | Salivation ([2]; 15 min): 0A | Sedation ([2]; 15 min): 0A | Tachypnea ([2]; 15 min): 0A | Tremors ([2]; 15 min): 0A | Urination ([2]; 15 min): 0A | Vocalization ([2]; 15 min): 0A | Ataxia ([2]; 30 min): 0A | Convulsions ([2]; 30 min): 0A | Hypnosis ([2]; 30 min): 0A | Limb abduction ([2]; 30 min): 0A | Muscle tone ([2]; 30 min): 0A | Pedaling ([2]; 30 min): 0A | Piloerection ([2]; 30 min): 0A | Ptosis ([2]; 30 min): 0A | Salivation ([2]; 30 min): 0A | Sedation ([2]; 30 min): 0A | Tachypnea ([2]; 30 min): 0A | Tremors ([2]; 30 min): 0A | Urination ([2]; 30 min): 0A | Vocalization ([2]; 30 min): 0A | Ataxia ([2]; 60 min): 0A | Convulsions ([2]; 60 min): 0A | Hypnosis ([2]; 60 min): 0A | Limb abduction ([2]; 60 min): 0A | Muscle tone ([2]; 60 min): 0A | Pedaling ([2]; 60 min): 0A | Piloerection ([2]; 60 min): 0A | Ptosis ([2]; 60 min): 0A | Salivation ([2]; 60 min): 0A | Sedation ([2]; 60 min): 0A | Tachypnea ([2]; 60 min): 0A | Tremors ([2]; 60 min): 0A | Urination ([2]; 60 min): 0A | Vocalization ([2]; 60 min): 0A | Ataxia ([2]; 2h): 0A | Convulsions ([2]; 2h): 0A | Hypnosis ([2]; 2h): 0A | Limb abduction ([2]; 2h): 0A | Muscle tone ([2]; 2h): 0A | Pedaling ([2]; 2h): 0A | Piloerection ([2]; 2h): 0A | Ptosis ([2]; 2h): 0A | Salivation ([2]; 2h): 0A | Sedation ([2]; 2h): 0A | Tachypnea ([2]; 2h): 0A | Tremors ([2]; 2h): 0A | Urination ([2]; 2h): 0A | Vocalization ([2]; 2h): 0A | Ataxia ([2]; 3h): 0A | Convulsions ([2]; 3h): 0A | Hypnosis ([2]; 3h): 0A | Limb abduction ([2]; 3h): 0A | Muscle tone ([2]; 3h): 0A | Pedaling ([2]; 3h): 0A | Piloerection ([2]; 3h): 0A | Ptosis ([2]; 3h): 0A | Salivation ([2]; 3h): 0A | Sedation ([2]; 3h): 0A | Tachypnea ([2]; 3h): 0A | Tremors ([2]; 3h): 0A | Urination ([2]; 3h): 0A | Vocalization ([2]; 3h): 0A | Ataxia ([2]; 4h): 0A | Convulsions ([2]; 4h): 0A | Hypnosis ([2]; 4h): 0A | Limb abduction ([2]; 4h): 0A | Muscle tone ([2]; 4h): 0A | Pedaling ([2]; 4h): 0A | Piloerection ([2]; 4h): 0A | Ptosis ([2]; 4h): 0A | Salivation ([2]; 4h): 0A | Sedation ([2]; 4h): 0A | Tachypnea ([2]; 4h): 0A | Tremors ([2]; 4h): 0A | Urination ([2]; 4h): 0A | Vocalization ([2]; 4h): 0A | Ataxia ([2]; 24h): 0A | Convulsions ([2]; 24h): 0A | Hypnosis ([2]; 24h): 0A | Limb abduction ([2]; 24h): 0A | Muscle tone ([2]; 24h): 0A | Pedaling ([2]; 24h): 0A | Piloerection ([2]; 24h): 0A | Ptosis ([2]; 24h): 0A | Salivation ([2]; 24h): 0A | Sedation ([2]; 24h): 0A | Tachypnea ([2]; 24h): 0A | Tremors ([2]; 24h): 0A | Urination ([2]; 24h): 0A | Vocalization ([2]; 24h): 0A
